Laboratory results as given in patent publication US20020012630A1, “Methods for testing compounds useful in treating diabetic complications” (priority 2000, published 2002).
Where no end group is shown, it is not given here.

Legend:
[1] = system: experimental wounds of streptozotocin-induced diabetic rats; experiment: Wound healing in experimental wounds of streptozotocin-induced diabetic rats; type: in vivo, rat; conditions: 6-week streptozotocin-induced diabetic rats treated with 20 mg/kg, compared with normal untreated rats; FIGS. 5, 6A-6B
Protocol: The blood glucose levels of streptozotocin-induced diabetic rats was maintained at between 300-350 mg/dL with subcutaneous injection of insulin. Experimental wounds, having a diameter of […] and including the panniculus carnosus muscle, were made on the backs of diabetic rats. Wounds were serially photographed with a digital camera at the time of wounding, and then again every three days after wound induction until the time of closure, and the area of the wound measured (and expressed as cm^2). Wound closure was defined as complete epithelialization. The degree of wound contraction is calculated as: {(size of wound at day 0−size of wound at day X)/size of wound at day 0)}×100. Diabetic rats were administered 20 mg/kg of the aldose reductase inhibitor 3(4,5,7-triflurobenzothiazol-2-yl)methyl-indole-N-acetic acid at either the time of diabetes induction (simulating treatment prior to diabetic complications) or 6 weeks after diabetes induction (simulating treatment at the time of diabetic complications).

[2] = system: full-thickness skin wounds of db/db mice; conditions: three doses on days 0, 1 and 2 under Tegederm wound dressing, dose of 10-1000 nM; cited from earlier work

O=C(O)Cn1cc(Cc2nc3c(F)c(F)cc(F)c3s2)c2ccccc21 [3-(4,5,7-triflurobenzothiazol-2-yl)methyl-indole-N-acetic acid]
wound healing rate (wound size and wound contraction) [1]: healed at the same rate as the wounds in normal rats

Substance P (RPKPQQFFGLM-NH2; ends and bridges not checked; UniProt P20366 58-68, looked up) [SP]
time of healing [2]: improved time of healing
